Laboratory results reported in patent US20260274814A1, “THIENYL COMPOUNDS FOR THE TREATMENT OF A CENTRAL NERVOUS SYSTEM DISEASE OR DISORDER” (Coreterra Therapeutics, Inc., priority 2023, published 2026).
Counter-ions that a name gives are not always drawn.

Test system: mice
Assay: Neuropharmacological Assay (SmartCube): automated behavioral signature of compound-treated mice compared with a database of reference drug classes
Assay type: in vivo
Settings: for minimal effective dose: Mus musculus, ip, read-out: MED; for minimal effective dose / MED: minimal effective dose: dose having 45% or more total activity in SmartCube, i.p., if only one dose was tested, that dose is shown; for AD / AG / AN / AX / CE / HL / MS / PS / SH / AP / UK: SmartCube probability class, 3.0 mg/kg dose, i.p. 15 min before the behavioral test
In short: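 i.p. dosing 15 min pre-test (NMP/PEG/propylene glycol vehicle); 3 doses, 3.0 mg/kg reported. Output = class-match probability per behavioural effect. Potency runs 0.3, 1, 3, 10 mpk (range adjusted as needed); MED = dose with ≥45% total activity.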

| SMILES | minimal effective dose [mg/kg] | AD | AG | AN | AX | CE | HL | MS | PS | SH | AP (formate salt, 3 mg/kg) | UK (formate salt, 3 mg/kg) | MED (formate salt) [mpk] | AP (hydrochloride, 3 mg/kg) | UK (hydrochloride, 3 mg/kg) | MED (hydrochloride) [mpk] | AP | UK | AX (hydrochloride, 3 mg/kg) | MED [mpk] |
| --- | --- | --- | --- | --- | --- | --- | --- | --- | --- | --- | --- | --- | --- | --- | --- | --- | --- | --- | --- | --- |
| CNC1COc2sccc2C1 (single isomer, unassigned) [Compound 293, N-methyl-3,4-dihydro-2H-thieno[2,3-b]pyran-3-amine formate salt] | < 3 | ND (^ <4%) | ND (^ <4%) | ND (^ <4%) | ND (^ <4%) | ND (^ <4%) | ND (^ <4%) | ND (^ <4%) | ND (^ <4%) | ND (^ <4%) | ++++ (≥74%) | ND (^ <4%) |  |  |  |  |  |  |  |  |
| CNC1COc2sccc2C1 (single isomer, unassigned) [Compound 294, N-methyl-3,4-dihydro-2H-thieno[2,3-b]pyran-3-amine formate salt] |  | ND (^ <4%) | ND (^ <4%) | ND (^ <4%) | ND (^ <4%) | ND (^ <4%) | ND (^ <4%) | ND (^ <4%) | ND (^ <4%) | ND (^ <4%) | ND (^ <4%) | + (≥4%) | >3 |  |  |  |  |  |  |  |
| Cc1csc2c1OCC(N)C2 (single isomer, unassigned) [Compound 295, 3-methyl-6,7-dihydro-5H-thieno[3,2-b]pyran-6-amine hydrochloride] | 3 | ND (^ <4%) | ND (^ <4%) | ND (^ <4%) | ND (^ <4%) | ND (^ <4%) | ND (^ <4%) | ND (^ <4%) | ND (^ <4%) | ND (^ <4%) |  |  |  | +++ (≥49%) | ND (^ <4%) |  |  |  |  |  |
| Cc1csc2c1OCC(N)C2 (single isomer, unassigned) [Compound 296, 3-methyl-6,7-dihydro-5H-thieno[3,2-b]pyran-6-amine hydrochloride] |  | ND (^ <4%) | ND (^ <4%) | ND (^ <4%) | ND (^ <4%) | ND (^ <4%) | ND (^ <4%) | ND (^ <4%) | ND (^ <4%) | ND (^ <4%) |  |  |  | ND (^ <4%) | + (≥4%) | >3 |  |  |  |  |
| CNC1COc2c(C)csc2C1 (single isomer, unassigned) [Compound 297, N, 3-dimethyl-6,7-dihydro-5H-thieno[3,2-b]pyran-6-amine hydrochloride] | 3 | ND (^ <4%) | ND (^ <4%) | ND (^ <4%) |  | ND (^ <4%) | ND (^ <4%) | ND (^ <4%) | ND (^ <4%) | ND (^ <4%) |  |  |  |  |  |  | ND (^ <4%) | ND (^ <4%) | ND (^ <4%) |  |
| CNC1COc2c(C)csc2C1 (single isomer, unassigned) [Compound 298, N, 3-dimethyl-6,7-dihydro-5H-thieno[3,2-b]pyran-6-amine hydrochloride] |  | ND (^ <4%) | ND (^ <4%) | ND (^ <4%) |  | ND (^ <4%) | ND (^ <4%) | ND (^ <4%) | ND (^ <4%) | ND (^ <4%) |  |  |  |  |  |  | ND (^ <4%) | ND (^ <4%) | +++ (≥49%) | 3 |
| CNC1COc2c(C(F)(F)F)csc2C1 (single isomer, unassigned) [Compound 309, N-methyl-3-(trifluoromethyl)-6,7-dihydro-5H-thieno[3,2-b]pyran-6-amine hydrochloride] |  | ND (^ <4%) | ND (^ <4%) | ND (^ <4%) | ND (^ <4%) | ND (^ <4%) | ND (^ <4%) | ND (^ <4%) | ND (^ <4%) | ND (^ <4%) |  |  |  |  | ND (^ <4%) | 1 | ND (^ <4%) |  |  |  |
